Measurements: patent publication US5028727A, “Platinum-(IV)-diamine complex” (Nederlandse Organisatie Voor …, priority 1988, dated 1991)
“Also recorded” adds a separate entry of the source.

Assays:
B16-F10 murine melanoma = assay: In vitro cytotoxicity, B16-F10 murine melanoma; format: cell-based; settings: 72 hours incubation, crystal violet
Description: (§1) Logarithmically growing cells were harvested by mild trypsinisation and 4,000 cells were added to a microtitre plate with 96 wells (Costar). […] Formalin (10%) in a phosphate-buffered physiological saline solution was added and the cells were fixed for 10 minutes.

[1] = tested on: HCT-116 human colon carcinoma; assay: In vitro cytotoxicity, HCT-116 human colon carcinoma; format: cell-based; settings: HCT116; 72 hours incubation; crystal violet
Description: as §1

[2] = tested on: A2780 human ovary carcinoma; assay: In vitro cytotoxicity, A2780 human ovary carcinoma; format: cell-based; settings: 72 hours incubation, crystal violet
Description: as §1

A2780/124 = assay: In vitro cytotoxicity, A2780/124 sub-line resistant to cis-platinum; format: cell-based, human; settings: for IC50: A2780/124, 72 hours incubation, crystal violet
Description: as §1

A2780/DDP = assay: In vitro cytotoxicity, A2780/DDP sub-line resistant to cis-platinum; format: cell-based, human; settings: for IC50: A2780/DDP, 72 hours incubation, crystal violet
Description: as §1

L1210 murine leukaemia = assay: Activity against L1210 murine leukaemia; format: in vivo, CDF1 mice; settings: for % T/C: once on day 1
Description: The platinum complex was investigated for anti-tumour action against L1210 murine leukaemia. CDF1 mice with a weight of 20 g were inoculated intraperitoneally with 10^6 ascitic cells of L1210 leukaemia. The administration of the active complex was started the day following the intraperitoneal implantation of the tumour. The complex was administered in diverse amounts by intraperitoneal injections. Groups of 6 mice were used for each dose and they were treated with a single dose of the complex on the treatment day. A group of ten control mice treated with a physiological saline solution was included in the experiment. Mice treated with cis-diamine-dichloro-platinum (cis-platinum) were included as positive comparisons. The mice were weighed before the treatment and again on the fifth or sixth day and the average change in weight was taken as a measure of the toxicity. The animals were assessed daily for mortality and the experiments were ended after 30 days. The tumour activity was determined on the basis of % T/C, which is the ratio of mean survival time of the group treated with the active complex relative to the mean survival time of the control group treated with a physiological saline solution times 100. The mice treated with physiological saline solution usually have a mean survival time of 7 days. A compound is regarded as active when this gives a T/C ≥125%.
=Dose is mg/kg administered i.p., once on day 1.

B16 melanoma = assay: Action against B16 melanoma; format: in vivo, BDF1 mice; settings: day 1-9
Description: BDF1 mice, 10 per group, are inoculated intraperitoneally with 0.5 ml of a 10% (weight/vol) homogeneous tissue suspension of B16 melanoma. Intraperitoneal treatment with the active compound was started one day after the implantation and continued daily for a total of 9 days. The control group treated with a physiological saline solution and groups treated with cis-platinum were included in each experiment. The mice were assessed daily for survival and tests were stopped after 60 days. The mean survival time of the mice treated with the active agent relative to that of the comparison (% T/C) was used as a measure for the anti-tumour action. A compound is regarded as active with a % T/C of 125%.
=Dose is mg/kg per injection administered i.p. on day 1-9

M5076 sarcoma = assay: Action against subcutaneously implanted M5076 sarcoma; format: in vivo, BDF1 mice; settings: day 5, 9, 13 and 17
Description: The complex was also assessed for anti-tumour action against subcutaneously implanted M5076 sarcoma. BDF1 mice, 8 per group, were inoculated subcutaneously with a fragment of a M5076 tumour. The mice were treated intravenously starting 5 days after the implantation and again on days 9, 13 and 17. […] Four doses of the complex were tested. A comparison group treated with physiological saline solution and groups treated with cis-platinum are included in this experiment. The mice were assessed daily for survival and the tests were ended after 75 to 80 days.

[3] = tested on: tumour cells resistant to cis-platinum (A2780/124 and A2780/DDP); assay: Action against tumour cells resistant to cis-platinum; format: cell-based, human
Description: For cis-platinum the corresponding values are 10 and 12.6 respectively.
as §1

tumours = settings: Rosenberg et al., Nature 222 (1969); cited from earlier work
[4] = resistance criterion: ratio ≥4.0

With `NCC1(CN)CCCC1.O=S(=O)([O-])[O-].[Cl][Pt+2][Cl]` [TNO-40, Cis-sulphato-trans-dichloro-1,1-bis(aminomethyl)cyclopentane-platinum-(IV)] the IC50 (B16-F10 murine melanoma) was 7.4 µg/mL, the IC50 [1] was 16 µg/mL and the IC50 [2] was 6.4 µg/mL. The IC50 (A2780/124) was 21 µg/mL, the IC50 (A2780/DDP) was 23 µg/mL and the “% T/C” value (L1210 murine leukaemia; 4 mg/kg i.p.) was 193%. The “% T/C” value (L1210 murine leukaemia; 6 mg/kg i.p.) was 186%, the “% T/C” value (L1210 murine leukaemia; 8 mg/kg i.p.) was 180% and the “% T/C” value (L1210 murine leukaemia; 2,5 mg/kg i.p.) was 179%. For the same molecule, the “anti-tumour action against L1210 murine leukaemia” value (L1210 murine leukaemia; active = T/C ≥125%, all doses investigated) was “active at all doses investigated”, the “% T/C” value (B16 melanoma; 0.2 mg/kg per injection i.p.) was 127% and the “% T/C” value (B16 melanoma; 0.4 mg/kg per injection i.p.) was 137%. The “% T/C” value (B16 melanoma; 0.8 mg/kg per injection i.p.) was 163%, the “% T/C” value (B16 melanoma; 1.6 mg/kg per injection i.p.) was 139% and the “% T/C” value (B16 melanoma; 2.4 mg/kg per injection i.p.) was 83%. For the same molecule, the “% T/C” value (M5076 sarcoma; 3 mg/kg i.v.) was 126%, the “% T/C” value (M5076 sarcoma; 4 mg/kg i.v.) was 125% and the “toxicity” value (M5076 sarcoma; 5 mg/kg i.v.) was “toxic”. For the same molecule, the “toxicity” value (M5076 sarcoma; 6 mg/kg i.v.) was “toxic” and the “action against cell lines resistant to cis-platinum” value [3] was “exhibits an anti-tumor action; also recorded: surprisingly good action”.

For `N.N.[Cl][Pt][Cl]` [Cis-platinum, cis-diamine-dichloroplatinum], the IC50 (B16-F10 murine melanoma) was 9.8 µg/mL, the IC50 [1] was 8.5 µg/mL and the IC50 [2] was 2.3 µg/mL. The IC50 (A2780/124) was 23 µg/mL, the “ratio IC50 A2780/124 to IC50 A2780” value (A2780/124; [4]) was 10 and the IC50 (A2780/DDP) was 28 µg/mL. For the same molecule, the “ratio IC50 A2780/DDP to IC50 A2780” value (A2780/DDP; [4]) was 12.6, the “% T/C” value (L1210 murine leukaemia; 4 mg/kg i.p.) was 131% and the “% T/C” value (L1210 murine leukaemia; 6 mg/kg i.p.) was 138%. The “% T/C” value (L1210 murine leukaemia; 8 mg/kg i.p.) was 131%, the “% T/C” value (L1210 murine leukaemia; 10 mg/kg i.p.) was 138% and the “% T/C” value (B16 melanoma; 0.4 mg/kg per injection i.p.) was 117%. The “% T/C” value (B16 melanoma; 0.8 mg/kg per injection i.p.) was 137%, the “% T/C” value (B16 melanoma; 1.6 mg/kg per injection i.p.) was 171% and the “% T/C” value (B16 melanoma; 2.4 mg/kg per injection i.p.) was 146%. For the same molecule, the “% T/C” value (M5076 sarcoma; 3 mg/kg i.v.) was 134%, the “T-C (mean time for tumours to reach 1 gram, treated relative to untreated)” value (M5076 sarcoma; 3 mg/kg i.v.) was 18.3 days and the “% T/C” value (M5076 sarcoma; 4 mg/kg i.v.) was 135%. For the same molecule, the “T-C (mean time for tumours to reach 1 gram, treated relative to untreated)” value (M5076 sarcoma; 4 mg/kg i.v.) was 16.3 days, the “% T/C” value (M5076 sarcoma; 5 mg/kg i.v.) was 131% and the “T-C (mean time for tumours to reach 1 gram, treated relative to untreated)” value (M5076 sarcoma; 5 mg/kg i.v.) was 20.5 days. For the same molecule, the “% T/C” value (M5076 sarcoma; 6 mg/kg i.v.) was 121%, the “T-C (mean time for tumours to reach 1 gram, treated relative to untreated)” value (M5076 sarcoma; 6 mg/kg i.v.) was 20 days and the anti-tumour activity (tumours) was “very strong anti-tumour activity”.
